Results published in patent US8685992B2, “Histone deacetylase inhibitors based simultaneously on trisubstituted 1H-pyrroles and aromatic and heteroaromatic spacers” (Universidad del País Vasco, priority 2009, dated 2014).

Experiments:
Human HDAC1 = Human HDAC1 (Homo sapiens (Human), UniProt Q13547); assay: HDAC1 fluorogenic peptide deacetylation assay; type: biochemical; settings: human HDAC1, 50 μM substrate, 30° C., 2 h; read-out: IC50 (nM) of enzyme activity HDAC1
Human HDAC3/NcoR2 = Human HDAC3/NcoR2 (Homo sapiens (Human), UniProt O15379); assay: HDAC3 fluorogenic peptide deacetylation assay; type: biochemical; settings: human HDAC3/NcoR2, 50 μM substrate, 30° C., 2 h; read-out: IC50 (nM) of enzyme activity HDAC3
MDA-MB-231 = assay: Cancer cell growth inhibition, MDA-MB-231; type: cell-based, human; settings: Homo sapiens; MDA-MB-231, Breast Cancer, 72 h treatment
Method: (§1) Cell culture-based assays were used to evaluate the ability of compounds of the invention to inhibit cancer cell growth inhibition.
(§2) Cells were obtained from the American Type Culture Collection (ATCC). Cells were cultured at 37° C. with 5% CO2 in the appropriate growth medium (see table below), and harvested respectively during the logarithmic growth period and counted with hemocytometer. The cell viability was over 98% by trypan blue exclusion. Cell concentrations were adjusted between 5×10^4 and 2×10^5 cells/ml with respective medium.
(§3) Stock solutions of test compounds and positive drugs Doxorubicin (Zhejiang, Haizheng, China), Paclitaxel (Beijing, Xiehe, China), Vincristin (Shenzhen Wanle, China), 5-FU (Tianjin jinyaoanjisuan, China), Irinotecan (Jiangsu Hengrui, China) and Cisplatin Nanjing zhiyao, China) were prepared in dimethyl sulphoxide (DMSO) or PBS at 20 mM.
(§4) All treatments were performed in triplicate. 10 μl drug solution was added to each well and incubated for 72 hours. At the end of the incubation, 20 μl of the freshly prepared MTS/PMS mixture solution was added to each well and incubated for 4 hours at 37° C. in a humidified, 5% CO2 atmosphere. Absorbance was read at 490 nm using SpectraMAX Plus microplate spectrophotometer. […] In order to calculate IC50, a dose-responsive curve was fitted using nonlinear regression model with a sigmoidal dose response.

SK-BR-3 = assay: Cancer cell growth inhibition, SK-BR-3; type: cell-based, human; settings: Homo sapiens; SK-BR-3, Breast Cancer, 72 h treatment
Method: as §1, §2, §3, §4

LNCaP = assay: Cancer cell growth inhibition, LNCaP; type: cell-based, human; settings: Homo sapiens, Prostate Cancer, 72 h treatment
Method: as §1, §2, §3, §4

Colo205 = assay: Cancer cell growth inhibition, Colo205; type: cell-based; settings: Homo sapiens, COLO 205; Colo205, Colorectal Cancer, 72 h treatment
Method: as §1, §2, §3, §4

DLD-1 = assay: Cancer cell growth inhibition, DLD-1; type: cell-based, human; settings: Homo sapiens; DLD-1, Colorectal Cancer, 72 h treatment
Method: as §1, §2, §3, §4

HCT-116 = assay: Cancer cell growth inhibition, HCT-116; type: cell-based, human; settings: Homo sapiens; HCT-116, Colorectal Cancer, 72 h treatment
Method: as §1, §2, §3, §4

SW620 = assay: Cancer cell growth inhibition, SW620; type: cell-based, human; settings: Homo sapiens, SW-620; SW620, Colorectal Cancer, 72 h treatment
Method: as §1, §2, §3, §4

Calu-6 = assay: Cancer cell growth inhibition, Calu-6; type: cell-based, human; settings: Homo sapiens; Calu-6, Lung Cancer, 72 h treatment
Method: as §1, §2, §3, §4

NCI-H226 = assay: Cancer cell growth inhibition, NCI-H226; type: cell-based, human; settings: Homo sapiens; NCI-H226, Lung Cancer, 72 h treatment
Method: as §1, §2, §3, §4

NCI-H460 = assay: Cancer cell growth inhibition, NCI-H460; type: cell-based, human; settings: Homo sapiens; NCI-H460, Lung Cancer, 72 h treatment
Method: as §1, §2, §3, §4

SK-MES-1 = assay: Cancer cell growth inhibition, SK-MES-1; type: cell-based, human; settings: Homo sapiens; SK-MES-1, Lung Cancer, 72 h treatment
Method: as §1, §2, §3, §4

HT-1080 = assay: Cancer cell growth inhibition, HT-1080; type: cell-based; settings: Homo sapiens; HT-1080, Fibrosarcoma, 72 h treatment
Method: as §1, §2, §3, §4

786-O = assay: Cancer cell growth inhibition, 786-O; type: cell-based, human; settings: Homo sapiens, 786-0, Kindney Cancer, 72 h treatment
Method: as §1, §2, §3, §4

Hep3B = assay: Cancer cell growth inhibition, Hep3B; type: cell-based, human; settings: Homo sapiens, Liver Cancer, 72 h treatment
Method: as §1, §2, §3, §4

HepG2 = assay: Cancer cell growth inhibition, HepG2; type: cell-based, human; settings: Homo sapiens; HepG2, Liver Cancer, 72 h treatment
Method: as §1, §2, §3, §4

SK-HEP-1 = assay: Cancer cell growth inhibition, SK-HEP-1; type: cell-based; settings: Homo sapiens, SK-HEP1; SK-HEP-1, Liver Cancer, 72 h treatment
Method: as §1, §2, §3, §4

143b = assay: Cancer cell growth inhibition, 143b; type: cell-based; settings: Homo sapiens, Osteosarcoma, 72 h treatment
Method: as §1, §2, §3, §4

A375 = assay: Cancer cell growth inhibition, A375; type: cell-based, human; settings: Homo sapiens, A-375; A375, Melanoma, 72 h treatment
Method: as §1, §2, §3, §4

CNE2 = assay: Cancer cell growth inhibition, CNE2; type: cell-based, human; settings: Homo sapiens, CNE-2; CNE2, Nasopharyngeal Cancer, 72 h treatment
Method: as §1, §2, §3, §4

MCG803 = assay: Cancer cell growth inhibition, MCG803; type: cell-based, human; settings: Homo sapiens; MCG803, Gastric Cancer, 72 h treatment
Method: as §1, §2, §3, §4

OVCAR3 = assay: Cancer cell growth inhibition, OVCAR3; type: cell-based, human; settings: Homo sapiens, OVCAR-3; OVCAR3, Ovarian Cancer, 72 h treatment
Method: as §1, §2, §3, §4

RPMI-8226 = assay: Cancer cell growth inhibition, RPMI-8226; type: cell-based, human; settings: Homo sapiens; RPMI-8226, Orthotopic Multiple Myeloma, 72 h treatment
Method: as §1, §2, §3, §4

Human HDAC5 = Human HDAC5 (Homo sapiens (Human), UniProt Q9UQL6); assay: HDAC5 fluorogenic peptide deacetylation assay; type: biochemical; settings: human HDAC5, 50 μM substrate, 30° C., 2 h; read-out: IC50 (nM) of enzyme activity HDAC5
SW480 = assay: Cancer cell growth inhibition, SW480; type: cell-based, human; settings: Homo sapiens; SW480, Colorectal Cancer, 72 h treatment
Method: as §1, §2, §3, §4

NCI-N87 = assay: Cancer cell growth inhibition, NCI-N87; type: cell-based, human; settings: Homo sapiens; NCI-N87, Gastric Cancer, 72 h treatment
Method: as §1, §2, §3, §4

Chain of Human HDAC5 (Q9UQL6 other isoform, or with tags, fused parts or gaps): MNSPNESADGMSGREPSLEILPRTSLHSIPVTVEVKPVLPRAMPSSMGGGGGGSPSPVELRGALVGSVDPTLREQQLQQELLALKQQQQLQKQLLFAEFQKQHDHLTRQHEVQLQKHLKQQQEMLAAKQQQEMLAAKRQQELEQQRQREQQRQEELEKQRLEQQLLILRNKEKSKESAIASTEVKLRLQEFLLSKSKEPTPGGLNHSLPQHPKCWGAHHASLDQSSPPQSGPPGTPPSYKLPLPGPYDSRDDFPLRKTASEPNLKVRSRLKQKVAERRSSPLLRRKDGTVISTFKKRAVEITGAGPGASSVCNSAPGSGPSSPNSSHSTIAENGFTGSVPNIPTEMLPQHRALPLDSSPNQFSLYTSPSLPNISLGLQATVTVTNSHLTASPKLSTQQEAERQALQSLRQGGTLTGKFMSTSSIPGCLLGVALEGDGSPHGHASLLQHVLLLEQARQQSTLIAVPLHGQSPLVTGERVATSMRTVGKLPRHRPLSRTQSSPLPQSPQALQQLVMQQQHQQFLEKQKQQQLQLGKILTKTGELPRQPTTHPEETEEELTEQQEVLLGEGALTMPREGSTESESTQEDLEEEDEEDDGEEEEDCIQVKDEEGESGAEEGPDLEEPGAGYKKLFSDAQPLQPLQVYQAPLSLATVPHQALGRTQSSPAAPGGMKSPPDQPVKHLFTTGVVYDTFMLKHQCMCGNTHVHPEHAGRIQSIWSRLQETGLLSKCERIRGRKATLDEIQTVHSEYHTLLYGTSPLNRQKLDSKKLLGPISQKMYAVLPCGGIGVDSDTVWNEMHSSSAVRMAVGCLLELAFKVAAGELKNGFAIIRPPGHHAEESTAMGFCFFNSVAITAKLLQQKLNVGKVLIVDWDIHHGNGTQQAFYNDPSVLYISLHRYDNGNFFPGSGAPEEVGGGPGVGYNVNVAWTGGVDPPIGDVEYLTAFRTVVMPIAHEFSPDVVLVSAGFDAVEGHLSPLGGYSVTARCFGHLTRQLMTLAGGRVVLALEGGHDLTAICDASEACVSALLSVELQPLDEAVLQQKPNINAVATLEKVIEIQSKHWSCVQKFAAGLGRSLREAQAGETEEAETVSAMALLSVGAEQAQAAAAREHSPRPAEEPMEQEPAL
Chain of Human HDAC3/NcoR2 (O15379 whole entry): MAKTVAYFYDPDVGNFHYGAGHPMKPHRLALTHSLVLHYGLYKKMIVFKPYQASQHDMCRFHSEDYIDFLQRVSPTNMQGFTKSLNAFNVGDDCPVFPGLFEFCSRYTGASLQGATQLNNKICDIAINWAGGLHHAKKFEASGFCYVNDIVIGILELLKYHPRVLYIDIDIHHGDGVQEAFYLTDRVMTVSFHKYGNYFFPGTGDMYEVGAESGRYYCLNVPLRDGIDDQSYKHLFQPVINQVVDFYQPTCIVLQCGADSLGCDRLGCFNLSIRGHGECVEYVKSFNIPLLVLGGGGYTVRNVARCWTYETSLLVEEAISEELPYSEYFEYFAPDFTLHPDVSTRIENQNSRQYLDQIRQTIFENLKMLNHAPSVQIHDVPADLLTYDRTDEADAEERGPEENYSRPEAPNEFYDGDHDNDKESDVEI
Chain of Human HDAC3/NcoR2 (Q9Y618 395-489 partner): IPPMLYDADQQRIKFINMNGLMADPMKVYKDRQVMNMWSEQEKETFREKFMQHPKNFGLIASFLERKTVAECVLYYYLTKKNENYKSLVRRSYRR
Chain of Human HDAC1 (Q13547 whole entry): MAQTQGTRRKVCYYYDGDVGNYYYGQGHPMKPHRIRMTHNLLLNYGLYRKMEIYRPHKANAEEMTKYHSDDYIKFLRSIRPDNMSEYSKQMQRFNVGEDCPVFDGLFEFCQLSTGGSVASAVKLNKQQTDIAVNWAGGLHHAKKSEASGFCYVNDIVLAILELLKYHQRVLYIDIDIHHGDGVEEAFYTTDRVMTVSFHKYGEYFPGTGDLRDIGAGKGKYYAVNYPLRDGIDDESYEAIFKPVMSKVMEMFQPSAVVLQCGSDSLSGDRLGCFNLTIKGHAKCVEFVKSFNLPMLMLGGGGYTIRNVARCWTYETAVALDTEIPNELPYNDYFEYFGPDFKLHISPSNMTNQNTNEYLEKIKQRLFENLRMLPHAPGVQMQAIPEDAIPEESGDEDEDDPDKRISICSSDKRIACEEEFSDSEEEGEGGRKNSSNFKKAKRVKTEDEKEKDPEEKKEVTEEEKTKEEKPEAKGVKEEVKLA

| IC50 (Human HDAC1) [nM] | IC50 (Human HDAC3/NcoR2) [nM] | IC50 (MDA-MB-231) [nM] | IC50 (SK-BR-3) [nM] | IC50 (LNCaP) [nM] | IC50 (Colo205) [nM] | IC50 (DLD-1) [nM] | IC50 (HCT-116) [nM] | IC50 (SW620) [nM] | IC50 (Calu-6) [nM] | IC50 (NCI-H226) [nM] | IC50 (NCI-H460) [nM] | IC50 (SK-MES-1) [nM] | IC50 (HT-1080) [nM] | IC50 (786-O) [nM] | IC50 (Hep3B) [nM] | IC50 (HepG2) [nM] | IC50 (SK-HEP-1) [nM] | IC50 (143b) [nM] | IC50 (A375) [nM] | SMILES | further results |
| --- | --- | --- | --- | --- | --- | --- | --- | --- | --- | --- | --- | --- | --- | --- | --- | --- | --- | --- | --- | --- | --- |
| 378 | 298 | 4260 | 1500 | 9910 | 4910 | 6870 | 1990 | 1820 | 9600 | 11900 | 10500 | 7760 | 1840 | 13400 | 3180 | 5010 | 4470 | 12900 | 10200 | O=C(NO)c1ccc(CNC(=O)c2[nH]c(-c3ccoc3)cc2-c2ccc(O)cc2)cc1 [Example 9, 5-(3-furyl)-N-{4-[(hydroxyamino)carbonyl]benzyl}-3-(4-hydroxyphenyl)-1H-pyrrole-2-carboxamide] | IC50 (CNE2): 9540 nM; IC50 (MCG803): 1100 nM; IC50 (OVCAR3): 9990 nM; IC50 (RPMI-8226): 1310 nM |
| 184 | 273 | 73800 | 4080 | 3070 | 3100 | 3220 | 1460 | 2000 | 726 | 12600 | 12100 | 1780 | 1090 | 10000 | 4270 | 1770 | 9930 | 11100 | 4270 | COc1ccc(-c2cc(-c3ccsc3)c(C(=O)NCc3ccc(C(=O)NO)cc3)[nH]2)cc1 [Example 28, N-{4-[(hydroxyamino)carbonyl]benzyl}-5-(4-methoxyphenyl)-3-(3-thienyl)-1H-pyrrole-2-carboxamide] | IC50 (Human HDAC5): 640 nM; IC50 (SW480): 2380 nM; IC50 (CNE2): 5010 nM; IC50 (MCG803): 6080 nM; IC50 (NCI-N87): 1480 nM; IC50 (OVCAR3): 4760 nM; IC50 (RPMI-8226): 462 nM |
| 84.2 | 124 | 4070 | 334 | 4110 | 1560 | 24500 | 80.4 | 1530 | 4070 | 21300 | 26700 | 18500 | 1530 | 8660 | 2700 | 2010 | 1750 | 2620 | 7700 | O=C(NO)c1ccc(CNC(=O)c2[nH]c(-c3ccc(O)cc3)cc2-c2ccsc2)cc1 [Example 14, N-{4-[(hydroxyamino)carbonyl]benzyl}-5-(4-hydroxyphenyl)-3-(3-thienyl)-1H-pyrrole-2-carboxamide] | IC50 (Human HDAC5): 172 nM; IC50 (CNE2): 11400 nM; IC50 (MCG803): 3270 nM; IC50 (OVCAR3): 25200 nM; IC50 (RPMI-8226): 336 nM; melting point: 121 to 122 °C |
| 71 | 75 | 1490 | 771 | 366 | 248 | 592 | 416 | 377 | 492 | 1760 | 1680 | 588 | 160 | 1910 | 614 | 498 | 1100 | 2570 | 1040 | COc1ccc(-c2cc(-c3ccoc3)c(C(=O)NCc3ccc(C(=O)NO)cc3)[nH]2)cc1 [Example 27, 3-(3-furyl)-N-{4-[(hydroxyamino)carbonyl]benzyl}-5-(4-methoxyphenyl)-1H-pyrrole-2-carboxamide] | IC50 (Human HDAC5): 222 nM; IC50 (SW480): 574 nM; IC50 (CNE2): 590 nM; IC50 (MCG803): 738 nM; IC50 (NCI-N87): 153 nM; IC50 (OVCAR3): 904 nM; IC50 (RPMI-8226): 58.6 nM |
| 49.9 | 46.1 | 1830 | 453 | 1720 | 365 | 4480 | 82 | 334 | 1220 | 3050 | 6290 | 3510 | 594 | 2290 | 859 | 2280 | 450 | 1930 | 3680 | O=C(NO)c1ccc(CNC(=O)c2[nH]c(-c3ccc(O)cc3)cc2-c2ccoc2)cc1 [Example 15, 3-(3-furyl)-N-{4-[(hydroxyamino)carbonyl]benzyl}-5-(4-hydroxyphenyl)-1H-pyrrole-2-carboxamide] | IC50 (Human HDAC5): 60 nM; IC50 (CNE2): 16100 nM; IC50 (MCG803): 2010 nM; IC50 (OVCAR3): 8050 nM; IC50 (RPMI-8226): 426 nM |
